# From patent US20250074888A1, “PYRIDAZINE DERIVATIVES AS MODULATORS OF NLRP3 INFLAMMASOME AND RELATED METHODS” (Neumora Therapeutics, Inc., priority 2021, published 2025)
# Tests used:
# NLRP3 inflammasome = NLRP3 inflammasome (Homo sapiens, UniProt Q96P20); test: NLRP3 inflammasome activation in THP1 macrophages (LPS priming, nigericin), IL-1β AlphaLISA; format: cell-based; conditions: PMA-differentiated THP1, LPS 20 ng/ml 3 hrs, compound 1 hr, Nigericin 6.7 uM 3 hrs, supernatant
# IL-6 = IL-6 release from LPS-primed, nigericin-treated THP1 macrophages, Hu IL-6 AlphaLISA; format: cell-based; conditions: Homo sapiens, THP-1; PMA-differentiated THP1, LPS 20 ng/ml 3 hrs, compound 1 hr, Nigericin 6.7 uM 3 hrs, supernatant
# NLRP3 inflammasome, sequence (Q96P20 whole entry): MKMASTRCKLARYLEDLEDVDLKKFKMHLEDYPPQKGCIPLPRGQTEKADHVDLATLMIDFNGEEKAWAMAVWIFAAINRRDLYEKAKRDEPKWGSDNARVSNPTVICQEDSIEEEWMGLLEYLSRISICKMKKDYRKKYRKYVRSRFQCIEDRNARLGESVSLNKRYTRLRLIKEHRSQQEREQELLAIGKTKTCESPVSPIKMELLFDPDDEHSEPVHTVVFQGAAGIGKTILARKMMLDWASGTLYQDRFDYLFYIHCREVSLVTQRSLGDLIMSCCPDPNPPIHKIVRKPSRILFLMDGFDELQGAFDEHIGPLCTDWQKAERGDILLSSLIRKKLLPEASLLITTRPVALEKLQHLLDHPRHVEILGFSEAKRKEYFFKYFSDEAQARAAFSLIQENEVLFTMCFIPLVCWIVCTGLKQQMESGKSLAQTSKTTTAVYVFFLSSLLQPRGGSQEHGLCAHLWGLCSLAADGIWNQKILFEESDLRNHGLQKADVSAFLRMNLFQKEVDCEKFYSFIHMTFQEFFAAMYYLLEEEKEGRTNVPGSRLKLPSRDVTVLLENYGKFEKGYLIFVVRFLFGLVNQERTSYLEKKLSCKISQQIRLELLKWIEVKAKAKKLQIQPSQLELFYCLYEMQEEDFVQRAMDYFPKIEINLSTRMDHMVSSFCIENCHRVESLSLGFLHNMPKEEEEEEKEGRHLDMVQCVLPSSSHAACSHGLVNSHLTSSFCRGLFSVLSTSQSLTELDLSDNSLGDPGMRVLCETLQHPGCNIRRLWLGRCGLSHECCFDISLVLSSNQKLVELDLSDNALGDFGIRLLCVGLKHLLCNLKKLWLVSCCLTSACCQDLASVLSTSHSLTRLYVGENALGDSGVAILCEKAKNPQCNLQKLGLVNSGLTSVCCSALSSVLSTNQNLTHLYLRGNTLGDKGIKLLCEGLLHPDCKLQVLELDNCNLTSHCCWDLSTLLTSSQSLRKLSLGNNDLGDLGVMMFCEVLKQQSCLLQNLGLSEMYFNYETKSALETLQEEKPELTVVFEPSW
IC50 (NLRP3 inflammasome) [nM],IC50 (IL-6) [nM],SMILES
≤ 10,> 10000,CCN1CCC[C@@H](Nc2cc(C)c(-c3ccc(C(F)(F)F)cc3)nn2)C1 [compound 1]
10 to 50,5000 to 10000,"Cc1cc(N[C@@H]2CCCN(C)C2)nnc1-c1ccc(C(F)(F)F)cc1 [compound 3, (R)-5-methyl-N-(1-methylpiperidin-3-yl)-6-(4-(trifluoromethyl)phenyl)-pyridazin-3-amine]"
10 to 50,5000 to 10000,CN1CCC[C@@H](Nc2ccc(-c3ccc(Cl)cc3C(F)(F)F)nn2)C1 [compound 4]
10 to 50,> 10000,Cc1cc(N[C@@H]2CCCN(C)C2)nnc1-c1ccc(C(F)(F)F)cc1F [compound 6]
10 to 50,> 10000,Cc1cc(N[C@@H]2CCCN(C)C2)nnc1-c1ccc(OC(F)(F)F)cc1 [compound 7]
10 to 50,> 10000,COc1cc(C(F)(F)F)ccc1-c1nnc(N[C@@H]2CCCN(C)C2)cc1C [compound 8]
10 to 50,1000 to 5000,Cc1cc(C(F)(F)F)ccc1-c1nnc(N[C@@H]2CCCN(C)C2)cc1C [compound 9]
10 to 50,5000 to 10000,CCc1cc(N[C@@H]2CCCN(C)C2)nnc1-c1ccc(C(F)(F)F)cc1 [compound 10]
10 to 50,1000 to 5000,Cc1ccc(-c2nnc(N[C@@H]3CCCN(C)C3)cc2C)cc1 [compound 11]
10 to 50,> 10000,CCc1ccc(-c2nnc(N[C@@H]3CCCN(C)C3)cc2C)cc1 [compound 12]
50 to 100,5000 to 10000,Cc1ccc(-c2nnc(N[C@@H]3CCCN(C)C3)cc2C(F)(F)F)cc1 [compound 13]
10 to 50,> 10000,Cc1c(N[C@@H]2CCCN(C)C2)nnc(-c2ccc(C(F)(F)F)cc2)c1C [compound 14]
10 to 50,> 10000,"Cc1cc(N[C@@H]2CCCN(CCO)C2)nnc1-c1ccc(C(F)(F)F)cc1 [compound 15, 2-[(3R)-3-[[5-methyl-6-[4-(trifluoromethyl)phenyl]pyridazin-3-yl]amino]-1-piperidyl]ethanol]"
10 to 50,> 10000,Cc1cc(N[C@@H]2CCCN(C)C2)nnc1-c1ccc(F)cc1 [compound 16]
50 to 100,> 10000,Cc1cc(N[C@@H]2C[C@@H](F)CN(C)C2)nnc1-c1ccc(C(F)(F)F)cc1 [compound 17]
50 to 100,5000 to 10000,CN1CCC[C@@H](Nc2ccc(-c3ccc(Cl)cc3Cl)nn2)C1 [compound 18]
100 to 500,5000 to 10000,Cc1cc(C(F)(F)F)ccc1-c1ccc(N[C@@H]2CCCN(C)C2)nn1 [compound 19]
100 to 500,> 10000,CN1CCC[C@@H](Nc2ccc(-c3ccc(C(F)(F)F)cc3Cl)nn2)C1 [compound 20]
100 to 500,5000 to 10000,Cc1ccc(-c2ccc(N[C@@H]3CCCN(C)C3)nn2)c(C)c1 [compound 21]
50 to 100,> 10000,Cc1cc(N[C@@H]2CCCNC2)nnc1-c1ccc(C(F)(F)F)cc1 [compound 22]
100 to 500,> 10000,CC(C)c1cc(N[C@@H]2CCCN(C)C2)nnc1-c1ccc(C(F)(F)F)cc1 [compound 23]
100 to 500,> 10000,CCN1CCC[C@@H](Nc2nnc(-c3ccc(C(F)(F)F)cc3)cc2C)C1 [compound 24]
50 to 100,> 10000,Cc1cc(N[C@@H]2CCCN(CCF)C2)nnc1-c1ccc(C(F)(F)F)cc1 [compound 25]
100 to 500,> 10000,Cc1cc(N[C@@H]2CCCN(C)C2)nnc1-c1ccc(C(F)(F)F)c(F)c1 [compound 26]
100 to 500,> 10000,Cc1cc(N[C@@H]2CCCN(C)C2)nnc1-c1ccc(F)cc1F [compound 27]
100 to 500,5000 to 10000,Cc1cc(N[C@@H]2CCCN(C)C2)nnc1-c1ccc(C2CCC2)cc1 [compound 28]
100 to 500,> 10000,Cc1cc(-c2ccc(C(F)(F)F)cc2F)nnc1N[C@@H]1CCCN(C)C1 [compound 29]
